Experimental data reported in patent US11020419B2, “Use of polyinosinic-polycytidylic acid compositions in treatment of malignant effusion” (BIOSYNGEN PTE, LTD, priority 2016, dated 2021).

How the values were obtained:
[1] = test system: S180 cell line; assay: Concomitant use of BSG with chemotherapeutic drugs in S180 cell line induced MA (Example 4); assay type: in vivo, mice; settings: for Ascites Vol.: D12 (2 d post-treatment), 7 days treatment from 4 d post-inoculation
Protocol: Materials: S180 cell line (purchased from CCTCC), female BAL/c mice (6-7 weeks old purchased from Centre of Laboratory Animal for Medical Science, Guangdong), BSG (2 mg/ml, produced in house), DDP (cisplatin, 5 mg/ml, from Jingasu Hansoh Pharma, batch no. 160603), CTX (cyclophosphamide), Sodium Chloride for Injection (2.25 g, 250 ml, 0.9%, from Zhejiang Tianrui, pharmaceutica, batch no. 116102506). Methods: 1. MA induction and propagation in mice: take logarithmic growth phase cells, adjust cell density to 5×10^6/ml, inject mice (i.p., 0.4 ml per animal). Collect MA fluid from mice 7-8 days post inoculation, adjust cell density to 2×10^7/ml and inject another 4 mice (i.p., 0.4 ml per animal). Collect MA fluid again from mice 6-7 days post inoculation, adjust cell density to 5×10^6/ml and inoculate 2×10^6 cells to 48 mice before grouping. 2. Grouping: randomly divide mice 4 d post-inoculation according to body weight into A, B, C, D, E, F groups with 8 mice per group. Treat mice with A. BSG (7.5 mg/kg), B. CTX (50 mg/kg), C. DDP (0.5 mg/kg), D. BSG (7.5 mg/kg)+CTX (50 mg/kg), E. BSG (7.5 mg/kg)+DDP (0.5 mg/kg), F. N.S control for 7 days (Grouping detail see Table 7).
3. Observations: 1) record mice behavior and skin/fur glossiness daily, measure body weights and abdominal girth every two days; 2) 2 d post-treatment (D12), obtain blood from eye venous plexus and separate serum for while blood cell count (at least 20 ul). After obtaining blood, execute mice by cervical dislocation, measure pleural fluid volume and record color of fluid; 3) calculate rate of MPE suppression (%)=(1−ave. MPE volume of treatment groups/ave. MA volume of control group)×100%.

[2] = test system: H22 cells
Protocol: MPE usually refers to tumors originated from the chest metastasis to the pleural space, which leads to the formation of excessive fluid containing cancerous cells and it accounts for about 50% of all pleural effusions. […] Materials: mice liver cancer cell line line (purchased from CCTCC), BAL/c mice (female, 6-7 weeks old, 18-22 g, SPF, purchased from Wei Tong Li Hua, Beijing). BSG, 2 mg/ml, produced in house. Comparator CTX (cyclophosphamide, 0.2 g, from Baxter Oncology GmbH, batch no. 6D111A). Sodium Chloride for Injection (2.25 g, 250 ml, 0.9%, from Zhejiang Tianrui, pharmaceutica, batch no. 116102506).
Methods: Thaw H22 cells, adjust density to 1×10^7 cells/ml, then inject 3 mice, 0.2 ml each. Collect excessive fluid from the injected mice on after 7 days and adjust cell density to 5×10^5/ml, inject another […] into the peritoneal muscle, 0.2 ml/mouse. Divided the mice randomly into 6 groups of 14 mice each three days post-inoculation, among the 14 mice of each group, 6 will be kept separately for survival study (see Table 4b). Treat mice continuously (grouping detail see Table 4a and 4b).
Observations: 1) record mice behavior and skin/fur glossiness daily, measure body weights every two days; 2) 5 h post-treatment on D6, obtain blood from eye venous plexus until death and separate serum for white blood cell count (at least 20 ul); after obtaining blood, execute mice by cervical dislocation, measure pleural fluid volume and obtain thymus, spleen and lung, record organ weight; 3) record survival status of the rest of mice in Groups A2 to E2, calculate average increase in life span (ILS) using formula=[(ave. survival days of treatment groups/ave. survival days of control group)−1]×100%; 4) calculate rate of MPE suppression (%)=(1−ave. MPE volume of treatment groups/ave. MPE volume of control group)×100%.

[3] = test system: mice liver cancer cell line H22; assay: BSG in preventing and controlling MA in H22 mouse model (Example 2); assay type: in vivo; settings: for number of mice with nodules at the 7th day post inoculation: 9 mice each; for No. mice survive through Day 15: 9 mice/group; for ILS (average increase in life span): vs control group
Protocol: Materials: mice liver cancer cell line H22; female mice 6-8 weeks old, 18-22 g. BSG, containing 2 mg/ml PIC, produced in-house; comparator, DDP purchased from Jiangzu Haoseng; negative control normal saline (N.S).
Methods: Thaw H22 cell line, wash before inject intraperitoneally (i.p.) into 2 female BALB/c mice, and wait 10 days for peritoneal fluid accumulation. Draw accumulated fluid on D10, adjust the cell density at 1×10^7/ml. Inject another 54 mice via i.p. route with 0.2 ml of the fluid containing total of 2×10^6 cancerous cells. Pick 18 mice and divide into 2 groups at random 24 h post-inoculation. Each group of mice receives either A. BSG (subcutaneous, s.c. 200 ug/ul) or B. DDP (intraperitoneal, i.p. 20 ug/ul) at dosage set out below as a preventive measure. Treat mice daily for 14 days. The rest of mice were divided into 4 groups at random 5 d post-inoculation, namely C. BSG group (s.c.), D. BSG group (i.p.), E. DDP group (i.p.), and F. control group (s.c., N.S). Treat mice daily for 10 days (grouping detail see table below).
MA volume of treatment groups/ave. MA volume of control group)×100%.

[4] = BSG 7.5 mg/kg i.m., CTX 50 mg/kg i.m., DDP 0.5 mg/kg i.p., alone or combined
[5] = D12, BSG 7.5 mg/kg i.m., CTX 50 mg/kg i.m., DDP 0.5 mg/kg i.p., alone or combined
[6] = survival groups, 6 mice each, i.m., BSG 7.5 mg/kg, CTX 30 mg/kg, alone or combined
[7] = preventive, from 24 h post-inoculation, daily 14 days, BSG 200 ug s.c. (Group A), DDP 20 ug i.p. (Group B)
[8] = treatment from 5 d post-inoculation, daily 10 days, i.p.: BSG 200 ug (Group D), DDP 20 ug (Group E)

O=P1(N(CCCl)CCCl)NCCCO1 (stereo not shown) [CTX, cyclophosphamide]
Ascites Vol. [1, 4]: 2.84 mL | MA color recorded [1, 5]: 3 mice with bloody ascites, 4 faintly red and 1 milky color | MA Suppression ([1]; D12, BSG 7.5 mg/kg i.m., CTX 50 mg/kg i.m., DDP 0.5 mg/kg i.p., alone or combined, vs N.S control): 63.5% | body weight on D7 ([2]; BSG high dose 7.5 mg/kg, CTX 30 mg/kg, combined, i.m., FIG. 5): lower body weight | organ weight post treatment (thymus and spleen) ([2]; CTX 30 mg/kg i.m., FIG. 4): lower average weight of organ | Ave. survival ([2]; i.m., BSG 7.5 mg/kg, CTX 30 mg/kg, alone or combined): 6.00 days | ILS (average increase in life span) ([2]; i.m., BSG 7.5 mg/kg, CTX 30 mg/kg, alone or combined, vs control, % only in formula b145): 2.86% | No. of Mice D 3 [2, 6]: 6 | No. of Mice D 4 [2, 6]: 6 | No. of Mice D 5 [2, 6]: 4 | No. of Mice D 6 [2, 6]: 1 | No. of Mice D 7 [2, 6]: 1 | No. of Mice D 8 [2, 6]: 0 | No. of Mice D 9 [2, 6]: 0

N.N.[Cl][Pt][Cl] [DDP, cisplatin]
average cancerous cells in ascites ([3]; cell count 2D post-treatment (D15), preventive: BSG 200 ug s.c. (Group A), DDP 20 ug i.p. (Group B)): 3.17 10^6/ml | ascites volume (on average) ([3]; i.p. administration, BSG 200 ug, DDP 20 ug daily, D15): 1.7 mL | number of mice with nodules at the 7th day post inoculation ([3]; preventive groups, BSG 200 ug s.c. (Group A, small size nodule), DDP 20 ug i.p. (Group B, medium size nodules)): 6 | No. mice survive through Day 15 [3, 7]: 6 | Ave. survival [3, 7]: 14.4 days | ILS (average increase in life span) [3, 7]: 72% | number of mice with nodules at the 7th day post inoculation ([3]; treatment from 5 d, i.p.: BSG 200 ug (Group D), DDP 20 ug (Group E), medium size nodules): 6 | No. mice survive through Day 15 [3, 8]: 2 | Ave. survival [3, 8]: 12.8 days | ILS (average increase in life span) [3, 8]: 53% | number of mice not alive until D12 ([1]; 8 mice per group, DDP 0.5 mg/kg i.p. (Group C), BSG 7.5 mg/kg + CTX 50 mg/kg (Group D)): 4 | Ascites Vol. [1, 4]: 5.63 mL | MA color recorded [1, 5]: bloody ascites with one mouse having milky color | tumor burden and MA volume (body weight on D12) ([1]; survived mice, D12, FIG. 7): largest tumor burden and MA volume
